11 molecules from the NIST ThermoML archive (doi:10.1021/je700297c) can be followed below.

± gives the expanded uncertainty stated by the source.

This data set can be described thus: activity coefficient (dimensionless); of the first substance listed, at infinite dilution; xn = mol fraction of the nth substance listed. The conditions noted are these: Liquid, Chromatography, x1 = 0.

Take `C=CCCCC` [hex-1-ene] + CCCCCCCC[n+]1ccn(C)c1.F[B-](F)(F)F: the activity coefficient stood at 4.9 ± 0.3 (298 K) and 3.9 ± 0.3 (323 K).

Regarding `c1ccsc1` [thiophene] + CCCCn1cc[n+](C)c1.F[B-](F)(F)F, the activity coefficient worked out at 1.7 ± 0.1 (298 K) and 1.5 ± 0.1 (323 K).

As to `CC1CCCCC1` [methylcyclohexane] + C[n+]1ccn(CCCC#N)c1.O=S(=O)([N-]S(=O)(=O)C(F)(F)F)C(F)(F)F, the activity coefficient is 75.1 ± 5.1 (303 K) and 66.2 ± 4.5 (323 K).

Regarding `Cc1ccccc1` [toluene] + CCCCCCCC[n+]1ccn(C)c1.F[B-](F)(F)F, the activity coefficient is, setting by setting: (298 K) 1 ± 0.1; (323 K) 0.9 ± 0.1.

Consider `CCOC(C)=O` [ethyl acetate] + CCCC[n+]1ccn(C)c1.O=S(=O)([N-]S(=O)(=O)C(F)(F)F)C(F)(F)F, for which the activity coefficient (323 K) came to 0.7 ± 0.1.

As to `CC1CCCCC1` [methylcyclohexane] + CCCC[n+]1ccn(C)c1.O=S(=O)([N-]S(=O)(=O)C(F)(F)F)C(F)(F)F, the activity coefficient (323 K) worked out at 9.1 ± 0.6.

For the molecule `C=CCCCC` [hex-1-ene] + C[n+]1ccn(CCCC#N)c1.O=S(=O)([N-]S(=O)(=O)C(F)(F)F)C(F)(F)F, the activity coefficient by setting is: (303 K) 54.2 ± 3.7; (323 K) 47.1 ± 3.2.

For the molecule `C=CCCCC` [hex-1-ene] + CCCCn1cc[n+](C)c1.F[B-](F)(F)F, the activity coefficient runs as follows: (298 K) 25.8 ± 1.8; (323 K) 21.8 ± 1.5.

With `CCO` [ethanol] + CCCCCCCCCCCCCCCC(=O)[O-].CCCCn1cc[n+](C)c1, the activity coefficient (333 K) turned out to be 0.4 ± 0.1.

In the case of `C1CCCCC1` [cyclohexane] + CCCCCCCC[n+]1ccn(C)c1.F[B-](F)(F)F, the activity coefficient turned out to be 5.3 ± 0.4 (298 K) and 3.9 ± 0.3 (323 K).

In the case of `CCCCCC` [hexane] + C[n+]1ccn(CCCC#N)c1.O=S(=O)([N-]S(=O)(=O)C(F)(F)F)C(F)(F)F, the activity coefficient reads like this: (303 K) 126 ± 8.6; (323 K) 113 ± 7.7.
